One substance from patent US7998736B2, “Adoptive immunotherapy with enhanced T lymphocyte survival” (The United States of America as represented by the …, priority 2004, dated 2011) can be followed below.

In test [1] the test system is CTLL-2 cells. Description: CTLL-2 proliferation assay (3H-thymidine). It counts as cell-based, mouse. The settings on record: Sup-T1 supernatants or control cytokine, 24 h. As to the method: The CTLL-2 assay was used to determine whether IL-15 produced by transduced Sup-T1 cells was biologically active.
CTLL-2 cells were grown in culture for 4 days and then harvested and washed twice in PBS and then plated into a 96-well plate, 5×10^3 cells/well. The CTLL-2 cells were incubated in the absence of cytokines for 4 hours. Supernatants from the transduced Sup-T1 cells were then added to the culture in serial dilutions. […] The CTLL-2 cells were cultured for a total of 24 hours; during the final six hours ^3H-Thymidine was added to each well. The CTLL-2 cells were harvested to a filter and read on a β-counter.

The test system of test [2] is IL-15Rα. The experiment in a line: IL-15Ralpha expression by flow cytometry. It counts as cell-based, human. The note with it: OKT3 stimulated lymphocytes, FIG. 15. The source says: In vitro, supraphysiologic levels of cytokine can engage intermediate and low affinity IL-15 receptors on lymphocytes lacking IL-15Rα. […] IL-15Rα was detected with a polyclonal, biotinylated antibody and biotinylated isotype-matched control antibody; cell surface-bound antibody was then labeled with streptavidin-PE (R&D Systems). PE was detected through flow cytometry.

Turning to “IL-15: exogenous recombinant human IL-15 added to culture media”, the “proliferation of CTLL-2” value in test [1] is reported as “did proliferate”. In addition, the IL-15Rα staining entry in test [2] is “did not manifest IL-15Rα staining”.
